According to PMC3684613 (PLoS ONE, 2013):
Where two headings read alike, the source gives them in different places.

Assays:
P. falciparum 3D7 [1] = test system: P. falciparum 3D7; design: method as in ChEMBL-NTD; conditions: ref ChEMBL-NTD, cited from earlier work
P. falciparum 3D7 [2] = test: DAPI stain fluorescent high content imaging assay, P. falciparum 3D7 (confirmatory screen, Avery); conditions: for EC50 / inhibition of growth at 5 µM / inhibition of growth at 2 µM: Plasmodium falciparum; for EC50: 3D7, read-out: EC50_nM; for inhibition of growth at 5 µM: 3D7, read-out: percent_inh @ 5 uM; for inhibition of growth at 2 µM: 3D7, read-out: percent_inh @ 2 uM
[3] = values follow the order of the source (GNF; GSK; StJude)
[4] = original screening data, source (GSK, GNF, StJude), several values separated by ';' in order of sources

Row | SMILES | EC50 (P. falciparum 3D7 [2]) [nM] | inhibition of growth at 5 µM (P. falciparum 3D7 [2]) [%] | further results
1 | COc1ccc(C2C(C(=O)Nc3cccc(OC)c3)c3ccccc3C(=O)N2C2CCCCC2)cc1 (stereo not drawn) [MMV008455] | 1180 | 97 | EC50 (P. falciparum 3D7 [1]; source GNF (GNF-Pf ids)): 1110 nM
2 | CCN1CCN(c2c(C(=O)c3ccccc3)cnc3cc(OC)c(OC)cc23)CC1 [MMV008474] |  | 59 | EC50 (P. falciparum 3D7 [1]; source GNF (GNF-Pf ids)): 3020 nM
3 | CCCn1c(=N)c(C(=O)NC2CCCCC2)cc2c(=O)n3cccc(C)c3nc21 [MMV008829] | 1110 | 96 | EC50 (P. falciparum 3D7 [1]; source GNF): 460 nM
4 | CCOc1cc2c(cc1OCC)C(c1cc(OC)c(O)cc1Cl)NCC2 (stereo not drawn) [MMV008956] | 370 | 98 | EC50 (P. falciparum 3D7 [1]; source GNF (GNF-Pf id)): 362 nM; EC50 (P. falciparum 3D7 [1]; source GSK (TCMDC id)): 748 nM
5 | O=C(CCc1ccccc1)c1ccccc1OCC(O)CN1CCCCC1 (stereo not drawn) [MMV009015] | 676 | 97 | EC50 (P. falciparum 3D7 [1]; source GNF): 881 nM
6 | CCN(CC)c1ccc(NC(=O)c2cccs2)cc1 [MMV009060] |  | 88 | EC50 (P. falciparum 3D7 [1]; source GNF): 414 nM
7 | OC(CNC1CCCCC1)Cn1c2ccccc2c2ccccc21 (stereo not drawn) [MMV009063] | 293 | 93 | EC50 (P. falciparum 3D7 [1]; source GNF (GNF-Pf id)): 483 nM; EC50 (P. falciparum 3D7 [1]; source GSK (TCMDC id)): 991 nM
8 | O=C1c2ccc3c4c(ccc(c24)C(=O)N1CCCCO)C(=O)N(CCCCO)C3=O [MMV009085] | 795 | 97 | EC50 (P. falciparum 3D7 [1]; [3]): 354 nM
9 | CCN(CC)S(=O)(=O)c1ccc(-c2csc(Nc3ccc(C)c(C)c3)n2)cc1 [MMV009108] | 641 | 97 | EC50 (P. falciparum 3D7 [1]; [4]): 2100 nM
10 | CC1CCN(Cc2c(O)ccc3cc(-c4nc5ccccc5s4)c(=O)oc23)CC1 [MMV009127] | 1130 | 91 | EC50 (P. falciparum 3D7 [1]; source GNF (GNF-Pf ids)): 12500 nM
11 | Cc1cc(Nc2ccc3ccccc3c2)n2ncnc2n1 [MMV011099] | 242 |  | EC50 (P. falciparum 3D7 [1]; source GSK (TCMDC id)): 173 nM
12 | Cc1cc(Nc2ccc(Cl)cc2)n2nc(C(F)(F)F)nc2n1 [MMV011256] | 212 |  | EC50 (P. falciparum 3D7 [1]; source GSK (TCMDC id)): 117 nM
13 | CC(C)(C)c1ccc(C2CC3=Nc4ccccc4N(C(=O)c4ccccc4Cl)C(c4ccc(F)cc4)C3=C(O)C2)cc1 (stereo not drawn) [MMV011436] | 946 | 96 | EC50 (P. falciparum 3D7 [1]; [3]): 2630 nM
14 | COC(=O)c1ccc(C2C3=C(O)CC(c4ccc(F)cc4)CC3=Nc3ccccc3N2C(=O)c2ccccc2)cc1 (stereo not drawn) [MMV011438] | 326 | 98 | EC50 (P. falciparum 3D7 [1]; [3]): 332 nM
15 | COc1ccc(C(=O)Nc2nonc2-c2ccc(OC)c(OC)c2)cc1Cl [MMV011567] | 516 | 92 | EC50 (P. falciparum 3D7 [1]; source GNF): 1780 nM; EC50 (P. falciparum 3D7 [1]; source GSK): 675 nM
16 | CCOC(=O)C1CCN(C(=O)CN2C(=O)c3ccccc3C2c2c[nH]c3ccccc23)CC1 (stereo not drawn) [MMV011576] | 1180 | 98 | EC50 (P. falciparum 3D7 [1]; [4]): 519 nM
17 | Oc1ccc2ccccc2c1CNc1nc2ccccc2[nH]1 [MMV011832] | 646 | 83 | EC50 (P. falciparum 3D7 [1]; [3]): 652 nM
18 | Nc1ccc(-c2nc3cc(Oc4ccc(Oc5ccc6[nH]c(-c7ccc(N)cc7)nc6c5)cc4)ccc3[nH]2)cc1 [MMV011895] | 842 | 97 | EC50 (P. falciparum 3D7 [1]; source GNF): 288 nM
19 | COc1cccc(Nc2nc(NCCO)c3ccccc3n2)c1 [MMV011944] | 854 |  | EC50 (P. falciparum 3D7 [1]; source GNF): 115 nM; EC50 (P. falciparum 3D7 [1]; source GSK): 151 nM
20 | Cc1cc(NC(=O)c2ccc(-c3ccccc3)cc2)no1 [MMV018984] | 693 | 95 | EC50 (P. falciparum 3D7 [1]; [4]): 1020 nM
21 | COCCNCC(O)Cn1c2ccc(Cl)cc2c2cc(Cl)ccc21 (stereo not drawn) [MMV019017] | 1010 |  | EC50 (P. falciparum 3D7 [1]; [4]): 52 nM
22 | COc1cccc(-c2nn(C)c3sc(C(=O)NCCN4CCN(c5ccccc5F)CC4)cc23)c1 [MMV019064] | 1300 | 91 | EC50 (P. falciparum 3D7 [1]; source GSK): 955 nM
23 | COc1ccccc1CNC(=O)CCn1c(=O)[nH]c2ccsc2c1=O [MMV019066] | 140 | 67 | EC50 (P. falciparum 3D7 [1]; source GSK (TCMDC id)): 1040 nM

Row | SMILES | EC50 (P. falciparum 3D7 [2]) [nM] | inhibition of growth at 5 µM (P. falciparum 3D7 [2]) [%] | further results
24 | CCN1CCN(c2cc(C)c3cc(NC(=O)c4ccc(OC)c(OC)c4)ccc3n2)CC1 [MMV019074] |  | 99 | EC50 (P. falciparum 3D7 [1]; source GSK): 1030 nM
25 | Cc1cccc(Nc2nc(N)c3ccccc3n2)c1 [MMV019110] | 400 |  | EC50 (P. falciparum 3D7 [1]; source GSK (TCMDC id)): 574 nM; inhibition of growth at 2 µM (P. falciparum 3D7 [2]): 97%
26 | CCN(Cc1ccccc1)C1CCN(Cc2cc(Br)ccc2O)CC1 [MMV019127] | 625 | 97 | EC50 (P. falciparum 3D7 [1]; [4]): 823 nM
27 | COc1cccc(Nc2nc(N)c3ccccc3n2)c1 [MMV019199] | 4000 |  | EC50 (P. falciparum 3D7 [1]; [3]): 934 nM; inhibition of growth at 2 µM (P. falciparum 3D7 [2]): 94%
28 | CCOc1cccc(C(=O)Nc2ccc(-c3nc4ccccc4[nH]3)cc2)c1 [MMV019202] |  |  | EC50 (P. falciparum 3D7 [1]; [4]): 1010 nM; % inh. At 2.5 uM (P. falciparum 3D7 [2]; 2.5 uM (Comment column; solubility issue at 5 uM)): 97%
29 | O=C(Nc1ccc(-c2nc3cc4ccccc4cc3[nH]2)cc1)c1cccc(Br)c1 [MMV019241] | 450 | 93 | EC50 (P. falciparum 3D7 [1]; source GSK (TCMDC ids)): 363 nM
30 | COc1ccc(-n2ccnc2SCC(=O)Nc2cc(C)ccc2C)c(OC)c1 [MMV019258] | 170 | 95 | EC50 (P. falciparum 3D7 [1]; source GSK (TCMDC id)): 205 nM
31 | Cc1sc2ncnc(Sc3nc4ccccc4[nH]3)c2c1C [MMV019266] | 614 | 100 | EC50 (P. falciparum 3D7 [1]; [4]): 255 nM
32 | Cn1c(=O)c2cc(C(=O)NCCCN3CCCCCC3)sc2c2ccccc21 [MMV019313] | 669 | 97 | EC50 (P. falciparum 3D7 [1]; source GSK): 689 nM
33 | CCC1(C)CC(CCNCc2ccccc2O)(c2ccc(C)cc2)CCO1 (stereo not drawn) [MMV019406] | 142 | 97 | EC50 (P. falciparum 3D7 [1]; source GSK (TCMDC id)): 38.8 nM
34 | c1ccc2c(NCCCCCCNc3c4c(nc5ccccc35)CCCC4)c3c(nc2c1)CCCC3 [MMV019555] | 376 | 100 | EC50 (P. falciparum 3D7 [1]; source GSK (TCMDC ids)): 196 nM
35 | COc1ccc(N2CCN(C(CNC(=O)C3CCCCC3)c3ccc4c(c3)OCO4)CC2)cc1 (stereo not drawn) [MMV019662] | 1110 | 97 | EC50 (P. falciparum 3D7 [1]; source GSK): 566 nM
36 | O=C(Nc1ccc(N2CCN(Cc3ccccc3)CC2)cc1)c1cccs1 [MMV019670] | 1080 | 59 | EC50 (P. falciparum 3D7 [1]; [4]): 769 nM
37 | COc1ccc(C2NCCc3c2[nH]c2ccccc32)cc1CN1CCN(c2ccc(F)cc2)CC1 (stereo not drawn) [MMV019690] | 934 | 97 | EC50 (P. falciparum 3D7 [1]; source GSK (TCMDC ids)): 776 nM
38 | O=C(Nc1ccc(N2CCCCC2)c(Cl)c1)c1ccc(Br)o1 [MMV019700] | 735 | 96 | EC50 (P. falciparum 3D7 [1]; [4]): 549 nM
39 | Cc1[nH]c(-c2ccc(F)cc2)cc1C(=O)NC1CCN(Cc2ccccc2)CC1 [MMV019738] | 771 | 99 | EC50 (P. falciparum 3D7 [1]; source GSK): 1130 nM
40 | Cc1ccc(C)c(Cn2c(N3CCC(C(=O)NCc4cccs4)CC3)nc3ccccc32)c1 [MMV019741] | 1330 | 97 | EC50 (P. falciparum 3D7 [1]; source GSK (TCMDC ids)): 938 nM
41 | Cc1ccc(Cl)cc1N1CCN(CCCNC(=O)C2CCN(c3nc4ccccc4[nH]3)CC2)CC1 [MMV019746] | 1330 | 97 | EC50 (P. falciparum 3D7 [1]; source GSK): 895 nM
42 | COc1ccc(C(=O)Nc2ccc3nc(N4CCCCC4)cc(C)c3c2)cc1OC [MMV019758] |  | 76 | EC50 (P. falciparum 3D7 [1]; source GSK): 994 nM
43 | COc1cccc(C(=O)Nc2ccc(-c3nc4ccccc4[nH]3)cc2)c1 [MMV019762] |  | 83 | EC50 (P. falciparum 3D7 [1]; [4]): 802 nM
44 | Cc1cc(C)c2nc(N3CCC(C(=O)NCCCN4CCC(N5CCCCC5)CC4)CC3)sc2c1 [MMV019780] | 697 | 98 | EC50 (P. falciparum 3D7 [1]; source GSK): 838 nM
45 | Fc1ccc2[nH]c3c(NCCCN4CCOCC4)ncnc3c2c1 [MMV019871] | 345 | 98 | EC50 (P. falciparum 3D7 [1]; source GSK (TCMDC id)): 714 nM
46 | O=C(NC1CCN(Cc2ccccc2)CC1)c1cc(C(=O)NC2CCN(Cc3ccccc3)CC2)cc(C(=O)NC2CCN(Cc3ccccc3)CC2)c1 [MMV019881] | 646 | 98 | EC50 (P. falciparum 3D7 [1]; [3]): 1040 nM
